What was measured:
Staphylococcus aureus = test: GST (germicidal spray test) AOAC 961.02 micro-efficacy of cleaning compositions; assay type: cell-based; details: 0.3 wt % alkylated amino acid, balance water, pH about 7, contact time 7 minutes; for GST efficacy in Cleaning Composition 1: 1 wt % lauryl amine oxide, 0.5 wt % butyl levulinate; for GST efficacy in Cleaning Composition 3: 1 wt % alkyl polyglucoside
Experimental: A number of tests were conducted for Cleaning Compositions 1-3 including different alkylated amino acids as set forth in Tables 1 and 2 as described herein. Tests were conducted using GST (germicidal spray test) testing method AOAC 961.02 for micro-efficacy (i.e., ability to kill bacteria) against Staphylococcus aureus. The contact time in the test method was 7 minutes, and the neutralizer utilized was Letheen Broth+0.07% Lecithin+0.5% Tween 80.

[1] = Stability of alkylated amino acid in cleaning composition 1 by HPLC-UV peak area vs t=0; assay type: physicochemical; details: HPLC-UV peak area relative to t=0; for % at t = 4 w (70° F.): 4 weeks; for % at t = 4 w (70° F.) / % at t = 8 w (70° F.): 70° F. (21° C.); for % at t = 8 w (70° F.) / % at t = 8 w (100° F.): 8 weeks; for % at t = 8 w (100° F.): 100° F. (38° C.)
Experimental: The cleaning compositions were prepared using the formulation previously described herein as cleaning composition 1, where each tested cleaning composition was comprised of the following: 0.3 wt % alkylated amino acid, 1 wt % surfactant (lauryl amine oxide), 0.5 wt % fragrance (butyl levulinate), and balance water (about 98.2 wt % water).
The stability tests were tested for amino acid stability at different temperatures, 70° F. (21° C.) and 100° F. (38° C.), over the following periods of time: 4 weeks (4w) and 8 weeks (8w). The samples tested were subjected to HPLC-UV analysis, and the peak areas of the plotted data corresponding to the alkylated amino acids in the samples at 4w and 8w were compared with the reference (sample at t=0) to obtain a percentage value (based upon measured area at different times divided by measured area of reference, t=0).
Percentage values of 70% or greater indicate adequate stability of the alkylated amino acids within the cleaning compositions over the 4 and 8 week time periods and at the given temperatures, where increasing percentage values (e.g., above 85%, 90% or even at or greater than 100%) indicate very stable cleaning compositions with little or no degradation of the alkylated amino acids within the compositions.

| SMILES | GST efficacy in Cleaning Composition 1 (Staphylococcus aureus) [%] | GST efficacy in Cleaning Composition 2 (Staphylococcus aureus) [%] | % at t = 4 w (70° F.) [1] [%] | % at t = 8 w (70° F.) [1] [%] | % at t = 8 w (100° F.) [1] [%] | GST efficacy in Cleaning Composition 3 (Staphylococcus aureus) [%] |
| --- | --- | --- | --- | --- | --- | --- |
| CCCCCCCCCCCC(=O)NC(CCCNC(=N)N)C(=O)OCC (stereo not shown) [Example 1] | >99.999 | >99.999 | 80 | 71 | 27 |  |
| CCCCCCCCCCCCNC(CCCNC(=N)N)C(=O)O (stereo not shown) [Example 2] | >99.999 | >99.999 | 100 | 100 | 100 |  |
| CCCCCCCCCCCCNC(=O)C(N)CCCNC(=N)N (stereo not shown) [Example 4] | >99.999 | >99.999 | 106 | 112 | 81 |  |
| CCCCCCCCCCCCNC(CCCNC(=N)N)C(=O)OCC (stereo not shown) [Example 5] | >99.999 | >99.999 |  |  |  |  |
| CCCCCCCCCCCC(=O)NC(CCCCN)C(=O)OCC (stereo not shown) [Example 16] | >99.999 | >99.999 | 88 | 79 | 37 |  |
| CCCCCCCCCCCCNC(CCCCN)C(=O)O (stereo not shown) [Example 17] | >99.999 | >99.999 | 90 | 102 | 102 |  |
| CCCCCCCCCCCCNC(=O)C(N)CCCCN (stereo not shown) [Example 20] | >99.999 | >99.999 | 97 | 89 | 62 |  |
| CCCCCCCCCCCC(=O)NCCCCC(N)C(=O)OCC (stereo not shown) [Example 21] | >99.999 | >99.999 | 13 | 4 | 0 |  |
| CCCCCCCCCCCCNCCCCC(N)C(=O)O (stereo not shown) [Example 22] | >99.999 | >99.999 | 100 | 150 | 146 |  |
| CCCCCCCCCCCCNCC(=O)OCC [Example 60] | >99.999 |  | 8 | 0 | 0 |  |
| CCCCCCCCCCCCOC(=O)CN [Example 61] | >99.999 |  | 0 | 0 | 0 | >99.8 |
| CCCCCCCCCCCCNC(=O)CN [Example 62] | >99.999 |  | 90 | 87 | 59 | >99.999 |
| CCCCCCCCCCCCNC(CC(C)C)C(=O)OCC (stereo not shown) [Example 80] | 99.99 | 99.4 | 93 | 85 | 89 |  |
| CCCCCCCCCCCCOC(=O)C(N)CC(C)C (stereo not shown) [Example 81] | >99.999 | 95.3 | 64 | 36 | 5 | >99.8 |
| CCCCCCCCCCCCNC(=O)C(C)CC(C)C (stereo not shown) [Example 82] | >99.999 |  | 90 | 100 | 93 | >99.999 |
| CCCCCCCCCCCCNC(Cc1ccccc1)C(=O)OCC (stereo not shown) [Example 88] | 99.999 |  | 93 | 91 | 74 |  |
| CCCCCCCCCCCCOC(=O)C(N)Cc1ccccc1 (stereo not shown) [Example 89] | 99.999 | 99.5 | 82 | 63 | 12 | 99.6 |
| CCCCCCCCCCCCNC(=O)C(N)Cc1ccccc1 (stereo not shown) [Example 90] | >99.999 |  | 104 | 101 | 96 | >99.999 |
| CCCCCCCCCCCCNC(Cc1ccc(O)cc1)C(=O)OCC (stereo not shown) [Example 92] | 99.99 |  | 99 | 59 | 57 |  |
| CCCCCCCCCCCCOC(=O)C(N)Cc1ccc(O)cc1 (stereo not shown) [Example 93] | >99.999 | 99.9 | 75 | 56 | 8 | 99.4 |
| CCCCCCCCCCCCNC(=O)C(N)Cc1ccc(O)cc1 (stereo not shown) [Example 94] | >99.999 |  | 98 | 94 | 86 | >99.999 |
| CCCCCCCCCCCCNC(Cc1c[nH]c2ccccc12)C(=O)OCC (stereo not shown) [Example 96] | 99.999 |  | 94 | 87 | 35 |  |
| CCCCCCCCCCCCOC(=O)C(N)Cc1c[nH]c2ccccc12 (stereo not shown) [Example 97] | >99.999 |  | 92 | 73 | 6 |  |
| CCCCCCCCCCCCNC(=O)C(N)Cc1c[nH]c2ccccc12 (stereo not shown) [Example 98] | >99.999 |  | 118 | 135 | 121 | 99.4 |

— patent US20250283017A1, “CLEANING COMPOSITIONS WITH ALKYLATED AMINO ACID SURFACTANTS HAVING ANTIMICROBIAL PROPERTIES” (THE CLOROX COMPANY, priority 2024, published 2025)
